Data reported in patent publication US12686673B2 (Blueprint Medicines Corporation, priority 2020, dated 2026).
Structures can show the parent of a compound that is named as a salt. Where two headings read alike, the source gives them in different places.

Columns and labels:
Format in all cases: cell-based
[1] = system: A431 cells; test: Cellular proliferation (Alamar Blue) assay, A431
[2] = biological target: EGFR(D770_N771insSVD) expressing Ba/F3 stable cell line (Homo sapiens, UniProt P00533, DUP768-770, cells depend on it); test: Cellular proliferation (Alamar Blue) assay, EGFR D770_N771insSVD Ba/F3; settings: 72 hr, read-out: D770 IC50
Chain of EGFR(D770_N771insSVD) expressing Ba/F3 stable cell line (P00533 with tags, fused parts or gaps DUP768-770): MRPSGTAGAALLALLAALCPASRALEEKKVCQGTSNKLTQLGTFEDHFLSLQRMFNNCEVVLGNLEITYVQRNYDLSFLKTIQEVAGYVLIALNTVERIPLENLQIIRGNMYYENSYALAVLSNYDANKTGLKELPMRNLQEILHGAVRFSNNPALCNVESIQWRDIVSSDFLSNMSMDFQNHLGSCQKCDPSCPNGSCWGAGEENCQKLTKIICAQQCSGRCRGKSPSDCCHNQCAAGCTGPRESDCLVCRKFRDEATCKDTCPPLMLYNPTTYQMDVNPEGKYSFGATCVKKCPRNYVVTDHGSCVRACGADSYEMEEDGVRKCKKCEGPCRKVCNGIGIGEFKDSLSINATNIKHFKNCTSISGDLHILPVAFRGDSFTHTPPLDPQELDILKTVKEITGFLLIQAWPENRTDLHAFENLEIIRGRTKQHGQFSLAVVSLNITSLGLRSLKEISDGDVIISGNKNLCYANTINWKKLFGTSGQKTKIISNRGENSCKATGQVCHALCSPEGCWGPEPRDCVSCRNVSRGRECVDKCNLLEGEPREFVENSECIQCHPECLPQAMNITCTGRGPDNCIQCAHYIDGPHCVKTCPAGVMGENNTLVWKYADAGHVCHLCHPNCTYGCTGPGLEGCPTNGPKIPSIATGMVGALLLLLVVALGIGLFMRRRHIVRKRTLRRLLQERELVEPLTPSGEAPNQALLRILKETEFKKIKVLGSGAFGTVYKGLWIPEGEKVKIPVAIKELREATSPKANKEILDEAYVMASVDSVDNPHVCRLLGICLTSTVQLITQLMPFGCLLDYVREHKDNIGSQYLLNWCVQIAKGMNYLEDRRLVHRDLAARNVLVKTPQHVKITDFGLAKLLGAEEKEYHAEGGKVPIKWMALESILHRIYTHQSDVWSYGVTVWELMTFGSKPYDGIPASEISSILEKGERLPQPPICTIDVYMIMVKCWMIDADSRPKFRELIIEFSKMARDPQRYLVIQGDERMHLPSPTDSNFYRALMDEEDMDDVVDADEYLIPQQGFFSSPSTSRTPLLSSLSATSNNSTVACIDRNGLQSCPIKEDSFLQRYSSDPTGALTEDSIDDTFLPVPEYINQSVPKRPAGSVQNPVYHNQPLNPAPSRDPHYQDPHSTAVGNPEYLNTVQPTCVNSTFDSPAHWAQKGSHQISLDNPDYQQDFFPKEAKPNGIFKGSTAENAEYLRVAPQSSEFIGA
In short: (§1)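 Proliferation of mutant-dependent Ba/F3 lines is measured by Alamar Blue reduction over 3 hours, following a 72 hr incubation with test compound spanning 10-0.0005 μM final in threefold dilutions. Cells go in at 15,000 per well in RPMI containing 10% FBS the day before dosing.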

[3] = biological target: HER2 (A775_G776insYVMA) expressing Ba/F3 stable cell line (Homo sapiens, UniProt P04626, DUP772-775, cells depend on it); test: Cellular proliferation (Alamar Blue) assay, HER2 A775_G776insYVMA Ba/F3; settings: 72 hr, read-out: YVMA IC50
Chain of HER2 (A775_G776insYVMA) expressing Ba/F3 stable cell line (P04626 with tags, fused parts or gaps DUP772-775): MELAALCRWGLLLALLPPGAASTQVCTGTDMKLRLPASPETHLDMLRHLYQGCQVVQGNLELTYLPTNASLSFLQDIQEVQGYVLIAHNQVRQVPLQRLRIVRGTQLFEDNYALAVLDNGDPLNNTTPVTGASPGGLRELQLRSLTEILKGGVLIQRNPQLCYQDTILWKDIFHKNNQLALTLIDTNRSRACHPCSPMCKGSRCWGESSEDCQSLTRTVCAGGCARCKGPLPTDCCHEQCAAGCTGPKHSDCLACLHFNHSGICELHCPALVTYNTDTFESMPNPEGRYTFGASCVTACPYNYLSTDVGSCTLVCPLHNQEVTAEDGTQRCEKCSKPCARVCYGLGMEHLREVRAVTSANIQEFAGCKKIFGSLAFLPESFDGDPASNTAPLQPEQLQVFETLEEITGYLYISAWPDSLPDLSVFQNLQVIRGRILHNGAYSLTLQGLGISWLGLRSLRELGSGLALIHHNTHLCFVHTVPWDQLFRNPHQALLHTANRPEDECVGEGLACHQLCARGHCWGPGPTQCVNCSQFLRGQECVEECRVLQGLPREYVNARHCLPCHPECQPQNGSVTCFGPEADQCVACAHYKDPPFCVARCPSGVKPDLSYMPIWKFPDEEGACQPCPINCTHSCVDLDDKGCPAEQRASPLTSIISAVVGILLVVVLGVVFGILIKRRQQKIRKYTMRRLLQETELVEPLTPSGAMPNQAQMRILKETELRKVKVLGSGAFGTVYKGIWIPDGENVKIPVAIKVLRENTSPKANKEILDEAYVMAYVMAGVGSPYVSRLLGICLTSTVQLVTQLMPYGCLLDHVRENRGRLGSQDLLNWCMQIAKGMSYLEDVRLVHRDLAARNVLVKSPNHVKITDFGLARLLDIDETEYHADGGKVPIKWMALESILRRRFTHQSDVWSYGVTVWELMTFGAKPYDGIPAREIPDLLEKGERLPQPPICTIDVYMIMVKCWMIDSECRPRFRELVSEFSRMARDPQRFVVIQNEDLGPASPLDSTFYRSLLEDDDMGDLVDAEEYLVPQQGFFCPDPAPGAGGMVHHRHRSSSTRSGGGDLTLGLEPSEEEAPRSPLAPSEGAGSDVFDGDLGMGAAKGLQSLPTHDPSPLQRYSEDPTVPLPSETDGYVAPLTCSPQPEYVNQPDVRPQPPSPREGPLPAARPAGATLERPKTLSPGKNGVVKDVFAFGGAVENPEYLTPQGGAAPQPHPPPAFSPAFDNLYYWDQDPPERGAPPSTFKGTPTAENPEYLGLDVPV
Description: • 1. EGFR(D770_N771insSVD) expressing Ba/F3 stable cell line • 2. EGFR (A767_dupASV) expressing Ba/F3 stable cell line • 3. A431 cells • 4. EGFR (H773insNPH) expressing Ba/F3 stable cell line • 5. HER2 (A775_G776insYVMA) expressing Ba/F3 stable cell line Assay Procedure: • 1. Seed cells at 5000 for A431 and 15,000 cells for Ba/F3 in 100 μL/well in complete media (for A431: DMEM with […] and for Ba/F3 cells: RPMI with 10% FBS) in 96-well tissue culture plate. Leave outer wells without cells for background measurements. Incubate at 37 degree Celsius in […] humidified incubator for 16-18 hours. • 2. Add 0.025 ml of 5× concentration compound dilution or DMSO control. Final compound concentration range is 10-0.0005 μM prepared in 3-fold serial dilutions. Incubate for 72 hr at 37 degree Celsius in […] humidified incubator. • 3. Add 0.0125 ml Alamar Blue™ reagent to each well with multi-channel pipette and tap gently on each side of the plate to mix. Incubate for 3 hours at 37 degree Celsius in 5% CO2 humidified incubator. • 4. […] Data analysis was performed using XLfit 5.5.0.5.

[4] = biological target: EGFR (A767_dupASV) expressing Ba/F3 stable cell line (Homo sapiens, UniProt P00533, DUP767-769, cells depend on it); test: Cellular proliferation (Alamar Blue) assay, EGFR A767_dupASV Ba/F3; settings: 72 hr, read-out: A767 IC50
Chain of EGFR (A767_dupASV) expressing Ba/F3 stable cell line (P00533 with tags, fused parts or gaps DUP767-769): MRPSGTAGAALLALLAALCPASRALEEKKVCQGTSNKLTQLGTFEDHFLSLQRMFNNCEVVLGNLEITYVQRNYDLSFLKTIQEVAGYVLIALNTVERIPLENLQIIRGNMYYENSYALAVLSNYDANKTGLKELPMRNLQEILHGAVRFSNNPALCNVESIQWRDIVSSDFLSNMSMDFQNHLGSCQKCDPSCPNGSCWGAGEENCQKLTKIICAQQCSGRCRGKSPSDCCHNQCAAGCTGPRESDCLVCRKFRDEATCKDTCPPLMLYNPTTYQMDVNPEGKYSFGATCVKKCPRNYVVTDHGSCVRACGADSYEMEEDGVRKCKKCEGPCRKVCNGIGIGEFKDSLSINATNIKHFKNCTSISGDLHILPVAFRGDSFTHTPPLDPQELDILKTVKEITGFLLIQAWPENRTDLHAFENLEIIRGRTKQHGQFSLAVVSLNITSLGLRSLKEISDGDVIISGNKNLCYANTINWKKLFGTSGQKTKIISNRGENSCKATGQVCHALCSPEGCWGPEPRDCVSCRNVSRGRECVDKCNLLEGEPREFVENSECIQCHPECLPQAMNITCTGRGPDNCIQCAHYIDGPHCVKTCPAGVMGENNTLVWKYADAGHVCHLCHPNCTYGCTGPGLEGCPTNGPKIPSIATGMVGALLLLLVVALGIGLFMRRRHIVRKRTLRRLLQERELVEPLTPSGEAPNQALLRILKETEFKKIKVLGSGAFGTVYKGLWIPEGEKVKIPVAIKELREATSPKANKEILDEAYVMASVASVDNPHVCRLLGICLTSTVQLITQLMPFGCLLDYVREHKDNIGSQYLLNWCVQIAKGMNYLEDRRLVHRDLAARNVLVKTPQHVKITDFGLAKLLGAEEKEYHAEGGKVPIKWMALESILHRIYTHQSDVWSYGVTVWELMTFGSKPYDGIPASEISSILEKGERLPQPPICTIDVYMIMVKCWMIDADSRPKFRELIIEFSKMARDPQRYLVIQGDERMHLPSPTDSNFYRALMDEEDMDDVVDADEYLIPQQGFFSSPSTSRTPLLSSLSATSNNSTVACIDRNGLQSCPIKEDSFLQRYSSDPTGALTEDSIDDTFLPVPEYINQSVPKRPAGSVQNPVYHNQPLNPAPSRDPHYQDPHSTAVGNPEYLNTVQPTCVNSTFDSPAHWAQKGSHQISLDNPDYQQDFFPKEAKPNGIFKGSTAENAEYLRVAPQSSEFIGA
In short: as §1

[5] = Homo sapiens, A-431; A431 cells, Alamar Blue, 72 hr; read-out: A431 IC50
[6] = Homo sapiens, A-431; A431 cells, 72 hr, Alamar Blue; read-out: A431 IC50

SMILES	IC50 [1, 5]	GI50 [2]	GI50 [3]	GI50 [4]	IC50 [1, 6]
C=CC(=O)Nc1cccc(Nc2nc(Nc3cnn(C)c3)ncc2CN(C(C)=O)c2ccccc2)c1 [Compound 18]	> 10000 nM	> 10000 nM	> 10000 nM	7160 nM	–
C/C=C/C(=O)Nc1ccc(F)c(Nc2nc(Nc3cnn(C)c3)ncc2Cl)c1 [Compound 11, (E)-N-(3-((5-chloro-2-((1-methyl-1H-pyrazol-4-yl)amino)pyrimidin-4-yl)amino)-4-fluorophenyl)but-2-enamide]	> 10000 nM	> 10000 nM	4720 nM	> 10000 nM	–
C=CC(=O)Nc1ccc(Cl)c(Nc2ccnc(Nc3cnn(C)c3)n2)c1 [Compound 165, N4-(5-amino-2-chlorophenyl)-N2-(1-methyl-1H-pyrazol-4-yl)pyrimidine-2,4-diamineprop-2-enoyl chloride]	> 10000 nM	> 10000 nM	9930 nM	> 10000 nM	–
C=CC(=O)Nc1ccc(F)c(N(C)c2nc(Nc3cnn(C)c3)ncc2-c2ccc(C(F)(F)F)cc2)c1 [Compound 228, N-(4-fluoro-3-(methyl(2-((1-methyl-1H-pyrazol-4-yl)amino)-5-(4-(trifluoromethyl)phenyl)pyrimidin-4-yl)amino)phenyl)acrylamide]	–	952 nM	1250 nM	891 nM	4120 nM
CN(C)C/C=C/C(=O)Nc1ccc(F)c(Nc2nc(Nc3cnn(CCO)c3)ncc2Cl)c1 [Compound 16, (E)-N-(3-((5-chloro-2-((1-(2-hydroxyethyl)-1H-pyrazol-4-yl)amino)pyrimidin-4-yl)amino)-4-fluorophenyl)-4-(dimethylamino)but-2-enamide]	9040 nM	9060 nM	1700 nM	8840 nM	–
C=CC(=O)Nc1cccc(Nc2nc(Nc3cnn(C)c3)ncc2CN(Cc2ccccc2)C(C)=O)c1 [Compound 48, N-(3-((5-((N-benzylacetamido)methyl)-2-((1-methyl-1H-pyrazol-4-yl)amino)pyrimidin-4-yl)amino)phenyl)acrylamide]	> 10000 nM	8800 nM	> 10000 nM	> 10000 nM	–
C=C(C)C(=O)Nc1ccc(F)c(Nc2nc(Nc3cnn(C)c3)ncc2Cl)c1 [Compound 12, N-(3-((5-chloro-2-((1-methyl-1H-pyrazol-4-yl)amino)pyrimidin-4-yl)amino)-4-fluorophenyl)methacrylamide]	> 10000 nM	> 10000 nM	7030 nM	> 10000 nM	–
C=CC(=O)Nc1ccc(F)c(Nc2nc(Nc3cnn(C)c3)ncc2-c2ccc3cccnc3c2)c1 [Compound 131, N-(4-fluoro-3-((2-((1-methyl-1H-pyrazol-4-yl)amino)-5-(quinolin-7-yl)pyrimidin-4-yl)amino)phenyl)acrylamide]	365 nM	202 nM	348 nM	758 nM	–
C=CC(=O)Nc1ccc(F)c(Nc2nc(Nc3cnn(C)c3)ncc2-c2ccc(-c3ccccc3)cc2)c1 [Compound 127, N-(3-((5-([1,1′-biphenyl]-4-yl)-2-((1-methyl-1H-pyrazol-4-yl)amino)pyrimidin-4-yl)amino)-4-fluorophenyl)acrylamide]	258 nM	971 nM	5280 nM	565 nM	–
C=CC(=O)Nc1ccc(F)c(Nc2nc(Nc3cnn(C)c3)ncc2-c2csc(Cl)c2)c1 [Compound 298, N-(3-((5-(5-chlorothiophen-3-yl)-2-((1-methyl-1H-pyrazol-4-yl)amino)pyrimidin-4-yl)amino)-4-fluorophenyl)acrylamide]	–	99 nM	402 nM	128 nM	120 nM
C=CC(=O)Nc1ccc(F)c(Nc2nc(Nc3cnn(C)c3)ncc2-c2ccc(CC(F)(F)F)cc2)c1 [Compound 130, N-(4-fluoro-3-((2-((1-methyl-1H-pyrazol-4-yl)amino)-5-(4-(2,2,2-trifluoroethyl)phenyl)pyrimidin-4-yl)amino)phenyl)acrylamide trifluoroacetate]	8 nM	26 nM	83 nM	27 nM	–
C=CC(=O)Nc1ccc(F)c(Nc2nc(Nc3cnn(C)c3)ncc2Br)c1 [Compound 256, N-(3-((5-bromo-2-((1-methyl-1H-pyrazol-4-yl)amino)pyrimidin-4-yl)amino)-4-fluorophenyl)acrylamide]	–	923 nM	755 nM	411 nM	1020 nM
C=CC(=O)Nc1ccc(F)c(Nc2nc(Nc3cnn(C)c3)ncc2-c2cccnc2OC)c1 [Compound 79, N-(4-fluoro-3-((5-(2-methoxypyridin-3-yl)-2-((1-methyl-1H-pyrazol-4-yl)amino)pyrimidin-4-yl)amino)phenyl)acrylamide]	> 10000 nM	934 nM	896 nM	887 nM	–
C=CC(=O)Nc1ccc(F)c(Nc2nc(Nc3cnn(C)c3)ncc2-c2cccc(C(=O)NC)c2)c1 [Compound 60, 3-(4-((5-acrylamido-2-fluorophenyl)amino)-2-((1-methyl-1H-pyrazol-4-yl)amino)pyrimidin-5-yl)-N-methylbenzamide]	> 10000 nM	7940 nM	6580 nM	7650 nM	–
C=CC(=O)Nc1ccc(F)c(Nc2nc(Nc3ccn(C)n3)ncc2Cl)c1 [Compound 30, N-(3-((5-chloro-2-((1-methyl-1H-pyrazol-3-yl)amino)pyrimidin-4-yl)amino)-4-fluorophenyl)acrylamide]	> 10000 nM	> 10000 nM	2640 nM	9630 nM	–
C=CC(=O)Nc1ccc(OC)c(Oc2nc(Nc3cnn(C)c3)ncc2Cl)c1 [Compound 172, N-[3-({5-chloro-2-[(1-methyl-1H-pyrazol-4-yl)amino]pyrimidin-4-yl}oxy)-4-methoxyphenyl] prop-2-enamide]	> 10000 nM	> 10000 nM	> 10000 nM	> 10000 nM	–
C=CC(=O)Nc1ccc(F)c(-c2nc(Nc3cnn(C)c3)ncc2Cl)c1 [Compound 159, N-(3-{5-chloro-2-[(1-methyl-1H-pyrazol-4-yl)amino]pyrimidin-4-yl}-4-fluorophenyl)prop-2-enamide]	> 10000 nM	9550 nM	> 10000 nM	2780 nM	–
C=CC(=O)Nc1ccc(F)c(Nc2nc(Nc3cnn(C)c3)ncc2-c2ccc(C3(C(F)(F)F)CC3)cc2)c1 [Compound 294, N-(4-fluoro-3-((2-((1-methyl-1H-pyrazol-4-yl)amino)-5-(4-(1-(trifluoromethyl)cyclopropyl)phenyl)pyrimidin-4-yl)amino)phenyl)acrylamide]	–	100 nM	803 nM	80 nM	45 nM
C=CC(=O)Nc1cccc(Nc2nc(Nc3cnn(C)c3)ncc2-c2ccc(C(F)(F)F)cc2)c1F [Compound 148, N-(2-fluoro-3-((2-((1-methyl-1H-pyrazol-4-yl)amino)-5-(4-(trifluoromethyl)phenyl)pyrimidin-4-yl)amino)phenyl)acrylamide trifluoroacetate]	83 nM	–	349 nM	56 nM	–
C=CC(=O)Nc1cccc(Nc2nc(Nc3cnn(C)c3)ncc2-c2ccc(Br)cc2)c1 [Compound 274, N-(3-((5-(4-bromophenyl)-2-((1-methyl-1H-pyrazol-4-yl)amino)pyrimidin-4-yl)amino)phenyl)acrylamide]	–	29 nM	120 nM	–	22 nM
C=CC(=O)Nc1cc(Br)cc(Nc2nc(Nc3cnn(C)c3)ncc2Cl)c1 [Compound 283, N-[3-bromo-5-({5-chloro-2-[(1-methyl-1H-pyrazol-4-yl)amino]pyrimidin-4-yl}amino)phenyl]prop-2-enamide]	–	–	1480 nM	–	617 nM
C=CC(=O)Nc1ccc(F)c(Nc2nc(Nc3ccc(CN(C)C)cc3)ncc2Cl)c1 [Compound 287, N-(3-((5-chloro-2-((4-((dimethylamino)methyl)phenyl)amino)pyrimidin-4-yl)amino)-4-fluorophenyl)acrylamide]	–	–	764 nM	–	473 nM
C=CC(=O)Nc1ccc(F)c(Nc2nc(Nc3cnn(C)c3)ncc2-c2ccn3ncnc3c2)c1 [Compound 278, N-(3-((5-([1,2,4]triazolo[1,5-a]pyridin-7-yl)-2-((1-methyl-1H-pyrazol-4-yl)amino)pyrimidin-4-yl)amino)-4-fluorophenyl)acrylamide]	–	–	444 nM	–	73 nM
C=CC(=O)Nc1cccc(Nc2nc(Nc3cnn(C)c3)ncc2F)c1 [Compound 280, N-[3-({5-fluoro-2-[(1-methyl-1H-pyrazol-4-yl)amino]pyrimidin-4-yl}amino)phenyl]prop-2-enamide]	–	–	5160 nM	–	520 nM
